This test deals with P388 leukemia ip, CD2F1 mice, survival T/C. The test can be described thus: NCI In Vivo Anticancer Drug Screen. Data for tumor model P388 Leukemia (intraperitoneal) in CD2F1 (CDF1) mice. The note with it: endpoint: median survival time, higher = longer survival. In a few lines:
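Mice carrying the transplanted tumor received test compound or vehicle. Survival was recorded in each group, and the value is the treated-group measurement divided by that of the vehicle-treated control group.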

Where [1] appears, read: dose: 60.0 mg/kg/injection, schedule: Q01DX005 (ip), vehicle: saline with Tween-80.
Setting [2] is: dose: 120.0 mg/kg/injection, schedule: Q01DX005 (ip), vehicle: saline with Tween-80.
[3] abbreviates: dose: 240.0 mg/kg/injection, schedule: Q01DX005 (ip), vehicle: saline with Tween-80.
[4] abbreviates: dose: 50.0 mg/kg/injection, schedule: Q01DX009 (ip), vehicle: saline with Tween-80.
[5] abbreviates: dose: 100.0 mg/kg/injection, schedule: Q01DX009 (ip), vehicle: saline with Tween-80.
Where [6] appears, read: dose: 200.0 mg/kg/injection, schedule: Q01DX009 (ip), vehicle: saline with Tween-80.
Setting [7] is: dose: 50.0 mg/kg/injection, schedule: Q01DX009 (ip), vehicle: Klucel (hydroxypropylcellulose) (HPC).
[8] abbreviates: dose: 100.0 mg/kg/injection, schedule: Q01DX009 (ip), vehicle: Klucel (hydroxypropylcellulose) (HPC).
Where [9] appears, read: dose: 200.0 mg/kg/injection, schedule: Q01DX009 (ip), vehicle: Klucel (hydroxypropylcellulose) (HPC).
Where [10] appears, read: dose: 12.5 mg/kg/injection, schedule: Q01DX009 (ip), vehicle: Klucel (hydroxypropylcellulose) (HPC).
[11] abbreviates: dose: 25.0 mg/kg/injection, schedule: Q01DX009 (ip), vehicle: Klucel (hydroxypropylcellulose) (HPC).

Several values for one entry are separate records, joined by “and”; a condition that tells them apart may be missing. Equal entries are not always repeated. Toxic doses and inconclusive results are not listed. Peptide text beside a SMILES is read from it. * marks the point of attachment. Boc = CC(C)(C)OC(=O)*; NHNH2 = NN*

`CC(C)(C)OC(=O)NC(Cc1c[nH]c2ccccc12)C(=O)NC(Cc1c[nH]c2ccccc12)C(=O)NN` (stereo not drawn) (Boc-Trp-Trp-NHNH2; configuration not given here): the T/C (dose: 12.5 mg/kg/injection, schedule: Q01DX009 (ip), vehicle: other) was 94 % of control; the T/C (dose: 25.0 mg/kg/injection, schedule: Q01DX009 (ip), vehicle: other) is 94 % of control; the T/C (dose: 50.0 mg/kg/injection, schedule: Q01DX009 (ip), vehicle: other) was 91 % of control; the T/C (dose: 100.0 mg/kg/injection, schedule: Q01DX009 (ip), vehicle: other) is 91 % of control; the T/C (dose: 200.0 mg/kg/injection, schedule: Q01DX009 (ip), vehicle: other) was 107 % of control.
With `CN1CCC(c2ccccc2)C(O)C1` (stereo unspecified), the T/C is, setting by setting: under setting [1], 106 % of control; under setting [2], 105 % of control; under setting [3], 103 % of control.
In the same order, the values of `CC(=O)C(F)(F)C(F)(F)C(F)(F)C(F)(F)C(C)=O` are 99 % of control, 94 % of control and 103 % of control.
Regarding `Cc1cc(Cl)cc2c1OCOC2`, the T/C is, setting by setting: (dose: 50.0 mg/kg/injection, schedule: Q01DX009 (ip), vehicle: acetone) 101 % of control; (dose: 100.0 mg/kg/injection, schedule: Q01DX009 (ip), vehicle: acetone) 102 % of control.
For the molecule `C[n+]1ccc(NC(=O)c2ccc(NC(=O)c3cccc(C(=O)Nc4ccc(C(=O)Nc5cc[n+](C)cc5)cc4)c3)cc2)cc1`, the T/C is 112 % of control (dose: 6.25 mg/kg/injection, schedule: Q04DX003 (ip), vehicle: saline with Tween-80); 120 % of control (dose: 12.5 mg/kg/injection, schedule: Q04DX003 (ip), vehicle: saline with Tween-80); 159 % of control (dose: 25.0 mg/kg/injection, schedule: Q01DX009 (ip), vehicle: saline with Tween-80); 195 % of control under setting [4]; 154 % of control (dose: 50.0 mg/kg/injection, schedule: Q04DX003 (ip), vehicle: saline with Tween-80); 170 % of control (dose: 66.0 mg/kg/injection, schedule: Q04DX003 (ip), vehicle: saline with Tween-80).
With `O=C(CCN1C(=O)c2ccccc2C1=O)c1cnc(N2C(=O)c3ccccc3C2=O)[nH]1`, the T/C is, setting by setting: (dose: 20.0 mg/kg/injection, schedule: Q01DX005 (ip), vehicle: Klucel (hydroxypropylcellulose) (HPC)) 98 % of control; (dose: 40.0 mg/kg/injection, schedule: Q01DX005 (ip), vehicle: Klucel (hydroxypropylcellulose) (HPC)) 97 % of control; (dose: 80.0 mg/kg/injection, schedule: Q01DX005 (ip), vehicle: Klucel (hydroxypropylcellulose) (HPC)) 91 % of control.
In the case of `O=C(Oc1ccccc1)OC1CCN(C(=O)Oc2ccccc2)CC1`, the T/C runs as follows: (dose: 50.0 mg/kg/injection, schedule: Q01DX001 (ip), vehicle: Klucel (hydroxypropylcellulose) (HPC)) 100 % of control; (dose: 100.0 mg/kg/injection, schedule: Q01DX001 (ip), vehicle: Klucel (hydroxypropylcellulose) (HPC)) 102 % of control; (dose: 200.0 mg/kg/injection, schedule: Q01DX001 (ip), vehicle: Klucel (hydroxypropylcellulose) (HPC)) 100 % of control; (dose: 400.0 mg/kg/injection, schedule: Q01DX001 (ip), vehicle: Klucel (hydroxypropylcellulose) (HPC)) 100 % of control.
Turning to `O=C(O)C1(Cc2ccc(O)cc2)NCCS1` (stereo unspecified), the T/C was 104 % of control (dose: 100.0 mg/kg/injection, schedule: Q04DX002 (ip), vehicle: Klucel (hydroxypropylcellulose) (HPC)) and 104 % of control (dose: 200.0 mg/kg/injection, schedule: Q04DX002 (ip), vehicle: Klucel (hydroxypropylcellulose) (HPC)).
Regarding `COC1CC(N)C2OC(c3ccccc3)OCC2O1` (stereo unspecified), the T/C by setting is: under setting [4], 99 % of control; under setting [5], 101 % of control; under setting [6], 109 % of control.
As for `O=C(O)CCCOC(C[N+](=O)[O-])C(Cl)(Cl)Cl` (stereo unspecified), the T/C reads like this: under setting [4], 95 % of control; under setting [5], 100 % of control; under setting [6], 96 % of control.
Turning to `CCC1CCC2COCN2C1` (stereo unspecified), the T/C (dose: 25.0 mg/kg/injection, schedule: Q01DX005 (ip), vehicle: saline) was 104 % of control; the T/C (dose: 50.0 mg/kg/injection, schedule: Q01DX005 (ip), vehicle: saline) is 120 % of control; the T/C (dose: 200.0 mg/kg/injection, schedule: Q01DX005 (ip), vehicle: saline) was 117 % of control and 118 % of control.
As for `Cc1ccc2nc(CC(=O)c3ccccc3)c(CC(=O)c3ccccc3)nc2c1`, the T/C was 93 % of control under setting [1], 94 % of control under setting [2] and 96 % of control under setting [3].
As for `[Mn+2].[O-]c1cc(Br)ccc1/C=N/Nc1ccccn1.[O-]c1cc(Br)ccc1/C=N/Nc1ccccn1`, the T/C (dose: 100.0 mg/kg/injection, schedule: Q01DX005 (ip), vehicle: saline with Tween-80) was 87 % of control; the T/C (dose: 200.0 mg/kg/injection, schedule: Q01DX005 (ip), vehicle: saline with Tween-80) was 91 % of control; the T/C (dose: 400.0 mg/kg/injection, schedule: Q01DX005 (ip), vehicle: saline with Tween-80) is 100 % of control.
Take `CCOC(=O)/C=C/c1c[nH]c(C(=O)OCC)c1`: the T/C was 93 % of control under setting [7]; 91 % of control under setting [8]; 93 % of control under setting [9]; 108 % of control (dose: 400.0 mg/kg/injection, schedule: Q01DX009 (ip), vehicle: Klucel (hydroxypropylcellulose) (HPC)).
`CCCC(C)/C=C(\C)C(O)C(C)/C=C/CCC(O)C(C)C(O)C(C)C(O)C(C)C1OC(C(C)C(=O)OC)CCC1C` (stereo unspecified): the T/C is 111 % of control (dose: 12.5 mg/kg/injection, schedule: Q01DX005 (ip), vehicle: dimethyl formamide); 108 % of control (dose: 25.0 mg/kg/injection, schedule: Q01DX005 (ip), vehicle: dimethyl formamide); 102 % of control (dose: 50.0 mg/kg/injection, schedule: Q01DX005 (ip), vehicle: dimethyl formamide).
Consider `CCOC(=O)N1CC2C=CC1C(C(=O)OC)=C2C(=O)OC` (stereo unspecified), for which the T/C is 109 % of control under setting [7], 113 % of control under setting [8] and 113 % of control under setting [9].
With `CCCCOC(=O)NCNC(=O)OCCCC`, the T/C was 99 % of control under setting [7], 100 % of control under setting [8] and 94 % of control under setting [9].
In the case of `c1nc(N2CCOCC2)c2[nH]cnc2n1`, the T/C (dose: 50.0 mg/kg/injection, schedule: Q01DX005 (ip), vehicle: Klucel (hydroxypropylcellulose) (HPC)) was 99 % of control and 91 % of control; the T/C (dose: 100.0 mg/kg/injection, schedule: Q01DX005 (ip), vehicle: Klucel (hydroxypropylcellulose) (HPC)) is 88 % of control; the T/C (dose: 200.0 mg/kg/injection, schedule: Q01DX005 (ip), vehicle: Klucel (hydroxypropylcellulose) (HPC)) was 91 % of control.
For the molecule `N=C1/C(=C\c2ccccc2O)C(=O)NN1C(=O)c1ccncc1`, the T/C reads like this: (dose: 100.0 mg/kg/injection, schedule: Q01DX001 (ip), vehicle: saline) 103 % of control; (dose: 200.0 mg/kg/injection, schedule: Q01DX001 (ip), vehicle: saline) 98 % of control; (dose: 400.0 mg/kg/injection, schedule: Q01DX001 (ip), vehicle: saline) 104 % of control.
For `Cn1c(C=O)cnc1[N+](=O)[O-]`, the T/C is, setting by setting: under setting [10], 108 % of control; under setting [11], 111 % of control; under setting [7], 111 % of control and 115 % of control.
For `CN(C)C1C=C(c2ccccc2)OS(=O)(=O)C1` (stereo unspecified), the T/C was 99 % of control under setting [4], 97 % of control under setting [5] and 113 % of control under setting [6].
Take `O=S(=O)(O)CCNC(=S)C(=S)NCCS(=O)(=O)O`: the T/C reads like this: (dose: 50.0 mg/kg/injection, schedule: Q01DX009 (ip), vehicle: saline) 100 % of control; (dose: 100.0 mg/kg/injection, schedule: Q01DX009 (ip), vehicle: saline) 100 % of control; (dose: 200.0 mg/kg/injection, schedule: Q01DX009 (ip), vehicle: saline) 101 % of control.
As for `CSC(=N/O)/C(=N\O)SC`, the T/C by setting is: under setting [10], 107 % of control; under setting [11], 99 % of control; under setting [7], 100 % of control and 102 % of control; under setting [9], 89 % of control.
Take `Cc1[nH]c2ccc(N(C)C)cc2c(=O)c1C`: the T/C was 96 % of control under setting [10]; 104 % of control and 107 % of control under setting [11]; 100 % of control and 103 % of control and 123 % of control under setting [7]; 102 % of control and 103 % of control and 107 % of control under setting [8]; 112 % of control under setting [9].
In the case of `NC(N)=NCC(NS(=O)(=O)c1ccccc1)C(=O)O` (stereo unspecified), the T/C was 111 % of control under setting [7], 111 % of control under setting [8] and 104 % of control under setting [9].
Regarding `CN1C(NN)=NS(=O)(=O)c2ccccc21`, the T/C under setting [1] is 106 % of control, the T/C under setting [2] was 103 % of control and the T/C under setting [3] was 106 % of control.
